{"source": "patent US8492313B2", "about": "“Synergistic herbicidal combinations comprising tembotrione” (Bayer Cropscience AG, priority 2009, dated 2013)", "test_system": "IPOHE (Ipomoea hederacea)", "test": "Post-emergence action against IPOHE", "assay_type": "in vivo", "description": "The herbicidal activity of the active substances or active substance mixtures was evaluated visually from the treated variants in comparison with untreated control variants. In this connection, damage to and development of all plant parts above ground was included. The evaluation was carried out according to a percentage scale (100% action=all plants dead; 50% action=50% of the plants and green plant parts dead; 0% action=no recognizable action=as untreated control plot).\nSeeds or root pieces of mono- and dicotyledonous weeds are placed in sandy clay soil in pots, covered with earth and secured in a greenhouse under good growing conditions (temperature, air humidity, water supply). Approximately three weeks after sowing, the test plants are treated with the compositions according to the invention. The compositions according to the invention formulated as wettable powders or as emulsion concentrates are sprayed, in spray application, on to the green plant parts in different dosages with a water application rate of 600 to 800 l/ha (corrected). Immediately up to a few days after application, the test receptacles accumulate water over the ground surface by up to 30 mm. With the water application (submerged application), on the other hand, the ground in the closed test receptacle is already covered with the paddy water up to 30 mm at the time of the application. The formulated active substances are here added directly to the paddy water. After an exposure time of the test plants in the greenhouse of an additional 3 to 4 weeks under optimum growing conditions, the effect of the preparations is evaluated visually in comparison with untreated controls. […] In this connection, actions of the combinations according to the invention which exceed the formal sum of the actions of the herbicides when applied individually are frequently observed. The values observed for the tests show, with suitable low dosages, an action of the combinations which lies above the expected values according to Colby.\nIf the observed activity values already exceed the formal sum of the values for the tests with individual applications, then they likewise exceed the expected value according to Colby, which is calculated according to the following formula and is likewise regarded as an indication of synergy (cf. S. R. Colby in Weeds, 15 (1967), pp. 20 to 22):\nIn this connection: • A, B=action of the component A or B in percent at a dosage of a or b grams ai/ha. • E=expected value in % at a dosage of a+b grams ai/ha.\nThe abbreviation IPOHE is the harmful plant Ipomoea hederacea.", "key": {"[1]": {"details": "dosage 50 g/ha, visual rating vs untreated control"}}}
{"smiles": "CC(C)c1nn(C(=O)NC(C)(C)C)c(=O)n1N", "note": "[B1, amicarbazone]", "values": [{"measurement": "Action against IPOHE", "setting": "dosage 125 g/ha", "result": 20, "unit": "%"}]}
{"smiles": "Nc1cc(Cl)nc(C(=O)O)c1Cl", "note": "[B2, aminopyralid]", "values": [{"measurement": "Action against IPOHE", "setting": "dosage 75 g/ha", "result": 30, "unit": "%"}]}
{"smiles": "Nc1nc(C2CC2)nc(C(=O)[O-])c1Cl.[K+]", "note": "[B4, aminocyclopyrachlor]", "values": [{"measurement": "Action against IPOHE", "setting": "[1]", "result": 35, "unit": "%"}]}
{"smiles": "COc1cc(OC)nc(NC(=O)NS(=O)(=O)Nc2ccccc2C(=O)C2CC2)n1", "note": "[B6, cyclosulfamuron]", "values": [{"measurement": "Action against IPOHE", "setting": "[1]", "result": 20, "unit": "%"}]}
{"smiles": "Cc1ccc2c(c1)[C@H](Nc1nc(N)nc(C(C)F)n1)[C@@H](C)C2", "note": "(some centres unmarked) [B7, indaziflam]", "values": [{"measurement": "Action against IPOHE", "setting": "dosage 25 g/ha", "result": 25, "unit": "%"}]}
{"smiles": "COCC(=O)OC(c1ncccc1S(=O)(=O)NC(=O)Nc1nc(OC)cc(OC)n1)C(C)F", "note": "(centres unmarked) [B8, flucetosulfuron]", "values": [{"measurement": "Action against IPOHE", "setting": "[1]", "result": 20, "unit": "%"}]}
{"smiles": "CC(C)N(C(=O)n1cnn(-c2ccc(Cl)cc2Cl)c1=O)c1ccc(F)cc1F", "note": "[B9, ipfencarbazone]", "values": [{"measurement": "Action against IPOHE", "setting": "[1]", "result": 25, "unit": "%"}]}
{"smiles": "C[C@@H](Oc1ccc(Oc2nc3ccc(Cl)cc3o2)cc1)C(=O)N(C)c1ccccc1F", "note": "[B10, metamifop]", "values": [{"measurement": "Action against IPOHE", "setting": "dosage 75 g/ha", "result": 15, "unit": "%"}]}
{"smiles": "COc1cc(OC)nc(NC(=O)NS(=O)(=O)Nc2ccccc2C(=O)N(C)C)n1", "note": "[B11, orthosulfamuron]", "values": [{"measurement": "Action against IPOHE", "setting": "dosage 30 g/ha", "result": 40, "unit": "%"}]}
{"smiles": "COc1cnc(OC)n2nc(NS(=O)(=O)c3c(OCC(F)F)cccc3C(F)(F)F)nc12", "note": "[B12, penoxsulam]", "values": [{"measurement": "Action against IPOHE", "setting": "dosage 15 g/ha", "result": 20, "unit": "%"}]}
{"smiles": "CCc1cc(C)cc(CC)c1-c1c(OC(=O)C(C)(C)C)n2n(c1=O)CCOCC2", "note": "[B13, pinoxaden]", "values": [{"measurement": "Action against IPOHE", "setting": "dosage 30 g/ha", "result": 15, "unit": "%"}]}
{"smiles": "CCCc1ccc2nc(Cl)c(S(=O)(=O)NC(=O)Nc3nc(OC)cc(OC)n3)n2n1", "note": "[B14, propyrisulfuron]", "values": [{"measurement": "Action against IPOHE", "setting": "[1]", "result": 30, "unit": "%"}]}
{"smiles": "C#CCN(C)c1c(C#N)cnn1-c1nn2c(c1Cl)CCCC2", "note": "[B15, pyraclonil]", "values": [{"measurement": "Action against IPOHE", "setting": "dosage 75 g/ha", "result": 30, "unit": "%"}]}
{"smiles": "Cc1nn(C)c(O)c1C(=O)c1ccc(C(F)(F)F)cc1S(C)(=O)=O", "note": "[B16, pyrasulfotole]", "values": [{"measurement": "Action against IPOHE", "setting": "dosage 25 g/ha", "result": 50, "unit": "%"}]}
{"smiles": "COCc1cccc(C(O)c2nc(OC)cc(OC)n2)c1NS(=O)(=O)C(F)F", "note": "(centres unmarked) [B17, pyrimisulfan]", "values": [{"measurement": "Action against IPOHE", "setting": "[1]", "result": 20, "unit": "%"}]}
{"smiles": "Cn1nc(C(F)(F)F)c(CS(=O)(=O)C2=NOC(C)(C)C2)c1OC(F)F", "note": "[B18, pyroxasulfone]", "values": [{"measurement": "Action against IPOHE", "setting": "dosage 75 g/ha", "result": 15, "unit": "%"}]}
{"smiles": "COc1cc(OC)n2nc(NS(=O)(=O)c3c(C(F)(F)F)ccnc3OC)nc2n1", "note": "[B19, pyroxsulam]", "values": [{"measurement": "Action against IPOHE", "setting": "dosage 15 g/ha", "result": 20, "unit": "%"}]}
{"smiles": "CC(C)N(C)S(=O)(=O)NC(=O)c1cc(-n2c(=O)cc(C(F)(F)F)n(C)c2=O)c(F)cc1Cl", "note": "[B20, saflufenacil]", "values": [{"measurement": "Action against IPOHE", "setting": "dosage 10 g/ha", "result": 45, "unit": "%"}]}
{"smiles": "COc1cc(OC)nc(NC(=O)NS(=O)(=O)c2c(C3=NOCC(C)O3)c(Cl)nn2C)n1", "note": "(centres unmarked) [B21, 3-chloro-N-[(4,6-dimethoxypyrimidin-2-yl)carbamoyl]-1-methyl-4-(5-methyl-5,6-dihydro-1,4,2-dioxazin-3-yl)-1H-pyrazole-5-sulfonamide]", "values": [{"measurement": "Action against IPOHE", "setting": "[1]", "result": 15, "unit": "%"}]}
{"smiles": "CS(=O)(=O)c1ccc(C(=O)C2C(=O)CCCC2=O)c(Cl)c1COCC(F)(F)F", "note": "[tembotrione]", "values": [{"measurement": "Action against IPOHE", "setting": "[1]", "result": 40, "unit": "%"}]}
